The nature of data set [1]: Anti-carrageenin edema action (oral, hind foot edema). Type of data set: in vivo, Wister rats. The conditions noted are these: minimum dose with significant inhibition of edema 3 hours after carrageenin injection, p.o. one hour before carrageenin; for minimal effective dose: Rattus norvegicus, po, 3 h. The procedure:
Fasting Wister rats, male, 5-6 weeks in age, five in one group, were injected subcutaneously in the sole of the caudal foot with 1% lambda carrageenin (0.05 ml), and the increase in the volume of the foot was measured at alliquot times. Then the compound of the invention was suspended in 0.3% CMC and administered orally one hour before carrageenin injection. 0.3% CMC alone was administered as a control.
In general terms: The carrageenan paw model is a standard test of acute inflammation.

The next data set is described as follows: Acute toxicity, oral. The conditions noted are these: mouse, in vivo, mice, p.o.
Data set [2] in a line: Adjuvant arthritis (chronic inflammation), oral. The data set is classed as in vivo. The conditions noted are these: administered orally, rats.
A short description of data set [3]: Analgesic action, acetic acid stretching method, oral. The conditions noted are these: administered orally in mice. The data set is classed as in vivo.
For the next data set, the system named is bovine serum albumin. Particulars: known agents, stated "in general"; cited from earlier work.

The minimal effective dose is the smallest amount tested that counted as effective. By LD50 is commonly meant the dose expected to kill half of the subjects tested. Read a high LD50 as a less toxic substance.

Compound `CC1=C(C(=O)Nc2ccccc2)SC2=NCCN21` [Compound 1, 2-phenylcarbamoyl-3-methyl-5,6-dihydro-imidazo [2,1-b] thiazole] came in with a minimal effective dose in data set [1] of 100 mg/kg.
In turn, `CC1=C(C(=O)Nc2ccccc2)SC2=NCCN21.Cl` [Compound 2, 2-phenylcarbamoyl-3-methyl-5,6-dihydro-imidazo [2,1-b] thiazole hydrochloride] registered a minimal effective dose in data set [1] of 50 mg/kg.
Same read-out and setting: with `CC1=C(C(=O)Nc2ccccc2Cl)SC2=NCCN21.Cl` [Compound 4, 2-(2-chlorophenylcarbamoyl)-3-methyl-5,6-dihydroimidazo [2,1-b] thiazole hydrochloride] the figure was less than 25 mg/kg; with `CC1=C(C(=O)Nc2ccc(Cl)cc2)SC2=NCCN21` [Compound 5], 50 mg/kg.
As for `CC1=C(C(=O)Nc2ccc(Cl)cc2)SC2=NCCN21` [Compound 6], the Minimum effective dose in data set [1] was < 25 mg/kg, p.o.
Consider `CC1=C(C(=O)Nc2cc(Cl)ccc2Cl)SC2=NCCN21` [Compound 7, 2-(2,5-dichlorophenylcarbamoyl)-3-methyl-5,6-dihydroimidazo [2,1-b] thiazole], for which, in data set [1], the minimal effective dose amounted to 100 mg/kg.
On to `CC1=C(C(=O)Nc2ccc(C)cc2Cl)SC2=NCCN21` [Compound 10], for which the minimal effective dose in data set [1] turned out to be 50 mg/kg.
The same measure, in the same setting: with `CCc1ccccc1NC(=O)C1=C(C)N2CCN=C2S1` [Compound 11] the figure was 50 mg/kg; with `CC1=C(C(=O)Nc2ccc(Cl)cc2C)SC2=NCCN21` [Compound 13], 50 mg/kg.
The same measure, in the same setting: with `CCOc1ccc(NC(=O)C2=C(C)N3CCN=C3S2)cc1` [Compound 14] the figure was 50 mg/kg.
On to `CC1=C(C(=O)Nc2ccc(Cl)c(Cl)c2)SC2=NCCN21.Cl` [Compound 15, 2-(3,4-dichlorophenylcarbamoyl)-3-methyl-5,6-dihydroimidazo [2,1-b] thiazole hydrochloride], for which the minimal effective dose in data set [1] was less than 25 mg/kg. This compound registered an LD50 in the data set “Acute toxicity, oral” of more than 4000 mg/kg. Further, in data set [2], the “inhibited adjuvant arthritis, at a dose of” value fell in the range of 1 to 10 mg/kg. Moreover, in data set [3], the “analgesic action, at a dose of” value is 25 mg/kg.
`CC1=C(C(=O)Nc2ccc(Br)cc2)SC2=NCCN21` [Compound 16]: in data set [1], the minimal effective dose turned out to be 50 mg/kg.
In turn, `CC1=C(C(=O)Nc2c(Cl)cc(Cl)cc2Cl)SC2=NCCN21` [Compound 19] came in with a minimal effective dose in data set [1] of 100 mg/kg.
With `COc1cc(OC)c(NC(=O)C2=C(C)N3CCN=C3S2)cc1Cl` [Compound 21], the minimal effective dose in data set [1] came out at 100 mg/kg.
Regarding `COc1ccc(Cl)cc1NC(=O)C1=C(C)N2CCN=C2S1` [Compound 22], in data set [1], the minimal effective dose came to 100 mg/kg.
Still for that read-out and setting: with `CC1=C(C(=O)Nc2ccc(Cl)c(Cl)c2)SC2=NCCN21` [Compound 30] the figure was less than 25 mg/kg; with `CC1=C(C(=O)Nc2ccc(Cl)cc2Cl)SC2=NCCN21` [Compound 32], 50 mg/kg.
Turning to `CC(C)(S)[C@@H](N)C(=O)O` [D-penicillamine], the “effect on heat denaturation of bovine serum albumin” value (“effect on heat denaturation” below) with bovine serum albumin is “do not inhibit the heat denaturation of bovine serum albumin but rather stimulate the protein heat denaturation”.
As for `Cn1cnc([N+](=O)[O-])c1Sc1ncnc2nc[nH]c12` [azathioprine], the “effect on heat denaturation” value in the data set on bovine serum albumin is given as “do not inhibit the heat denaturation of bovine serum albumin but rather stimulate the protein heat denaturation”.
With `c1ccc([C@H]2CN3CCSC3=N2)cc1` [levamisol], in the data set on bovine serum albumin, the “effect on heat denaturation” value is on record as “do not inhibit the heat denaturation of bovine serum albumin but rather stimulate the protein heat denaturation”.
For the compound gold sodium thiomalate, the “effect on heat denaturation” value in the data set on bovine serum albumin is listed as “do not inhibit the heat denaturation of bovine serum albumin but rather stimulate the protein heat denaturation”.

(Values after patent publication US4629793A, “2,3-di-substituted-5,6-dihydroimidazo [2,1-b] thiazole, its salts, production thereof and anti-inflammatory agent containing the same” (Toyo Jozo Kabushiki Kaisha, priority 1981, dated 1986).)
